Data taken from EP0908457B1, “3-(1,2-benzisothiazol- and isoxazol-5-Y1)-2,4(1H,3H)-pyrimidinedione or thione and 3-(1,2-benzisothiazol- and isoxazol-5-y1)-4(3H)-pyrimidinone or thione herbicidal agents” (BASF AKTIENGESELLSCHAFT, priority 1997, dated 1999).

How the values were obtained:
Cyperus iria = assay: Preemergence weed control under flooded paddy conditions, CYPIR (Rice Flatsedge); format: in vivo; details: flooded paddy
Sagittaria pygmaea, L. = assay: Preemergence weed control under flooded paddy conditions, SAGPY (Arrowhead (Pygmaea)); format: in vivo; details: flooded paddy
[1] = system: Oryza sativa, (L.) Tebonnet; assay: Rice tolerance to post-transplant applications under flooded paddy conditions (Example 187), ORYSAT (Rice, Tebonnet)
[2] = system: Echinochloa oryzoides (Ard.) Fritsch.; assay: Preemergence weed control under flooded paddy conditions, ECHORC (Watergrass (Calif.)); format: in vivo; details: flooded paddy
[3] = system: Monochoria vaginalis, Presl.; assay: Preemergence weed control under flooded paddy conditions, MOOVA (Monochoria); format: in vivo; details: flooded paddy
[4] = system: Cyperus serotinus, Rottb.; assay: Preemergence weed control under flooded paddy conditions, CYPSE (Flatsedge); format: in vivo
[5] = Rate 0.0320 kg/ha, preemergence weeds, rated three to four weeks after treatment
[6] = Rate 0.0620 kg/ha, preemergence weeds, rated three to four weeks after treatment
[7] = Rate 0.1250 kg/ha, preemergence weeds, rated three to four weeks after treatment
[8] = Rate 0.2500 kg/ha, preemergence weeds, rated three to four weeks after treatment
[9] = Rate 0.0320 kg/ha, rated three to four weeks after treatment
[10] = Rate 0.0620 kg/ha, rated three to four weeks after treatment
[11] = Rate 0.1250 kg/ha, rated three to four weeks after treatment
[12] = Rate 0.2500 kg/ha, rated three to four weeks after treatment
[13] = Rate 0.0320 kg/ha, preemergence, rated three to four weeks after treatment
[14] = Rate 0.0620 kg/ha, preemergence, rated three to four weeks after treatment
[15] = Rate 0.1250 kg/ha, preemergence, rated three to four weeks after treatment
[16] = Rate 0.2500 kg/ha, preemergence, rated three to four weeks after treatment
[17] = Rate 0.0320 kg/ha, preemergence, rated 3-4 weeks after treatment
[18] = Rate 0.0620 kg/ha, preemergence, rated 3-4 weeks after treatment
[19] = Rate 0.1250 kg/ha, preemergence, rated 3-4 weeks after treatment
[20] = Rate 0.2500 kg/ha, preemergence, rated 3-4 weeks after treatment
[21] = Rate 0.5000 kg/ha, preemergence, rated 3-4 weeks after treatment
Note: meaning of each grade not given here.

## C#CCOC(=O)COc1cccc(-c2nsc3ccc(-n4c(=O)cc(C(F)(F)F)n(C)c4=O)cc23)c1 [Example 326, Acetic acid, {m-{5-[3,6-dihydro-3-methyl-2,6-dioxo-4-(trifluoromethyl)-1(2H)-pyrimidinyl]-1,2-benzisothiazol-3-yl}phenoxy}-, 2-propynyl ester]
Cyperus iria; [5]
  herbicidal effect rating, CYPIR: 6.0
Cyperus iria; [6]
  herbicidal effect rating, CYPIR: 7.0
Cyperus iria; [7]
  herbicidal effect rating, CYPIR: 7.0
Cyperus iria; [8]
  herbicidal effect rating, CYPIR: 9.0
Sagittaria pygmaea, L.; [5]
  herbicidal effect rating, SAGPY: 0.0
Sagittaria pygmaea, L.; [6]
  herbicidal effect rating, SAGPY: 1.0
Sagittaria pygmaea, L.; [7]
  herbicidal effect rating, SAGPY: 5.5
Sagittaria pygmaea, L.; [8]
  herbicidal effect rating, SAGPY: 9.0
[1]; [9]
  herbicidal effect rating ORYSAT: 5.5
[1]; [10]
  herbicidal effect rating ORYSAT: 5.5
[1]; [11]
  herbicidal effect rating ORYSAT: 5.5
[1]; [12]
  herbicidal effect rating ORYSAT: 5.5
[2]; [5]
  herbicidal effect rating, ECHORC: 5.5
[2]; [6]
  herbicidal effect rating, ECHORC: 8.5
[2]; [7]
  herbicidal effect rating, ECHORC: 9.0
[2]; [8]
  herbicidal effect rating, ECHORC: 9.0
[3]; [5]
  herbicidal effect rating, MOOVA: 9.0
[3]; [6]
  herbicidal effect rating, MOOVA: 9.0
[3]; [7]
  herbicidal effect rating, MOOVA: 9.0
[3]; [8]
  herbicidal effect rating, MOOVA: 9.0
[4]; [5]
  herbicidal effect rating, CYPSE: 4.0
[4]; [6]
  herbicidal effect rating, CYPSE: 4.5
[4]; [7]
  herbicidal effect rating, CYPSE: 4.5
[4]; [8]
  herbicidal effect rating, CYPSE: 7.5

## Cc1ccc(OC(C)(C)C(=O)NS(C)(=O)=O)c(-c2nsc3ccc(-n4c(=O)cc(C(F)(F)F)n(C)c4=O)cc23)c1 [Example 576, Propionamide, 2-{{2-{5-[3,6-dihydro-3-methyl-2,6-dioxo-4-(trifluoromethyl)-1(2H)-pyrimidinyl]-1,2-benzisothiazol-3-yl}-p-tolyl}oxy}-2-methyl-N-(methylsulfonyl)-]
Cyperus iria; [13]
  herbicidal effect rating, CYPIR: 0.0
Cyperus iria; [14]
  herbicidal effect rating, CYPIR: 3.0
Cyperus iria; [15]
  herbicidal effect rating, CYPIR: 3.0
Cyperus iria; [16]
  herbicidal effect rating, CYPIR: 5.0
Sagittaria pygmaea, L.; [13]
  herbicidal effect rating, SAGPY: 0.0
Sagittaria pygmaea, L.; [14]
  herbicidal effect rating, SAGPY: 0.0
Sagittaria pygmaea, L.; [15]
  herbicidal effect rating, SAGPY: 3.0
Sagittaria pygmaea, L.; [16]
  herbicidal effect rating, SAGPY: 4.0
[1]; [9]
  herbicidal effect rating ORYSAT: 4.0
[1]; [10]
  herbicidal effect rating ORYSAT: 7.0
[1]; [11]
  herbicidal effect rating ORYSAT: 7.0
[1]; [12]
  herbicidal effect rating ORYSAT: 9.0
[2]; [13]
  herbicidal effect rating, ECHORC: 6.0
[2]; [14]
  herbicidal effect rating, ECHORC: 7.0
[2]; [15]
  herbicidal effect rating, ECHORC: 7.0
[2]; [16]
  herbicidal effect rating, ECHORC: 9.0
[3]; [13]
  herbicidal effect rating, MOOVA: 7.0
[3]; [14]
  herbicidal effect rating, MOOVA: 9.0
[3]; [15]
  herbicidal effect rating, MOOVA: 9.0
[3]; [16]
  herbicidal effect rating, MOOVA: 9.0
[4]; [13]
  herbicidal effect rating, CYPSE: 0.0
[4]; [14]
  herbicidal effect rating, CYPSE: 0.0
[4]; [15]
  herbicidal effect rating, CYPSE: 0.0
[4]; [16]
  herbicidal effect rating, CYPSE: 4.0

## Cn1c(C(F)(F)F)cc(=O)n(-c2ccc3snc(C(=O)NS(=O)(=O)CCl)c3c2)c1=O [Example 324, 1,2-Benzisothiazole-3-carboxamide, N-[(chloromethyl)sulfonyl]-5-[3,6-dihydro-3-methyl-2,6-dioxo-4-(trifluoromethyl)-1(2H)-pyrimidinyl]-]
Cyperus iria; [5]
  herbicidal effect rating, CYPIR: 9.0
Cyperus iria; [6]
  herbicidal effect rating, CYPIR: 9.0
Cyperus iria; [7]
  herbicidal effect rating, CYPIR: 9.0
Cyperus iria; [8]
  herbicidal effect rating, CYPIR: 9.0
Sagittaria pygmaea, L.; [5]
  herbicidal effect rating, SAGPY: 0.0
Sagittaria pygmaea, L.; [6]
  herbicidal effect rating, SAGPY: 3.0
Sagittaria pygmaea, L.; [7]
  herbicidal effect rating, SAGPY: 9.0
Sagittaria pygmaea, L.; [8]
  herbicidal effect rating, SAGPY: 9.0
[1]; [9]
  herbicidal effect rating ORYSAT: 3.0
[1]; [10]
  herbicidal effect rating ORYSAT: 4.0
[1]; [11]
  herbicidal effect rating ORYSAT: 7.0
[1]; [12]
  herbicidal effect rating ORYSAT: 9.0
[2]; [5]
  herbicidal effect rating, ECHORC: 0.0
[2]; [6]
  herbicidal effect rating, ECHORC: 4.0
[2]; [7]
  herbicidal effect rating, ECHORC: 5.0
[2]; [8]
  herbicidal effect rating, ECHORC: 6.0
[3]; [5]
  herbicidal effect rating, MOOVA: 9.0
[3]; [6]
  herbicidal effect rating, MOOVA: 9.0
[3]; [7]
  herbicidal effect rating, MOOVA: 9.0
[3]; [8]
  herbicidal effect rating, MOOVA: 9.0
[4]; [5]
  herbicidal effect rating, CYPSE: 0.0
[4]; [6]
  herbicidal effect rating, CYPSE: 0.0
[4]; [7]
  herbicidal effect rating, CYPSE: 3.0
[4]; [8]
  herbicidal effect rating, CYPSE: 7.0

## Cc1ccc(OC(C)(C)C(=O)OCCCl)c(-c2nsc3ccc(-n4c(=O)cc(C(F)(F)F)n(C)c4=O)cc23)c1 [Example 544, Propionic acid, 2-{{2-{5-[3,6-dihydro-3-methyl-2,6-dioxo-4-(trifluoromethyl)-1(2H)-pyrimidinyl]-1,2-benzisothiazol-3-yl}-p-tolyl}oxy}-2-methyl-, 2-chloroethyl ester]
Cyperus iria; [17]
  herbicidal effect rating, CYPIR: 9.0
Cyperus iria; [18]
  herbicidal effect rating, CYPIR: 9.0
Cyperus iria; [19]
  herbicidal effect rating, CYPIR: 9.0
Cyperus iria; [20]
  herbicidal effect rating, CYPIR: 9.0
Cyperus iria; [21]
  herbicidal effect rating, CYPIR: 9.0
Sagittaria pygmaea, L.; [17]
  herbicidal effect rating, SAGPY: 7.0
Sagittaria pygmaea, L.; [18]
  herbicidal effect rating, SAGPY: 4.0
Sagittaria pygmaea, L.; [19]
  herbicidal effect rating, SAGPY: 8.0
Sagittaria pygmaea, L.; [20]
  herbicidal effect rating, SAGPY: 9.0
Sagittaria pygmaea, L.; [21]
  herbicidal effect rating, SAGPY: 9.0
[1]; Rate 0.0320 kg/ha, rated 3-4 weeks after treatment
  herbicidal effect rating ORYSAT: 4.0
[1]; Rate 0.0620 kg/ha, rated 3-4 weeks after treatment
  herbicidal effect rating ORYSAT: 9.0
[1]; Rate 0.1250 kg/ha, rated 3-4 weeks after treatment
  herbicidal effect rating ORYSAT: 9.0
[1]; Rate 0.2500 kg/ha, rated 3-4 weeks after treatment
  herbicidal effect rating ORYSAT: 9.0
[1]; Rate 0.5000 kg/ha, rated 3-4 weeks after treatment
  herbicidal effect rating ORYSAT: 8.0
[2]; [17]
  herbicidal effect rating, ECHORC: 5.4
[2]; [18]
  herbicidal effect rating, ECHORC: 5.6
[2]; [19]
  herbicidal effect rating, ECHORC: 6.4
[2]; [20]
  herbicidal effect rating, ECHORC: 9.0
[2]; [21]
  herbicidal effect rating, ECHORC: 9.0
[3]; [17]
  herbicidal effect rating, MOOVA: 9.0
[3]; [18]
  herbicidal effect rating, MOOVA: 9.0
[3]; [19]
  herbicidal effect rating, MOOVA: 9.0
[3]; [20]
  herbicidal effect rating, MOOVA: 9.0
[3]; [21]
  herbicidal effect rating, MOOVA: 9.0
[4]; [17]
  herbicidal effect rating, CYPSE: 9.0
[4]; [19]
  herbicidal effect rating, CYPSE: 7.0
[4]; [20]
  herbicidal effect rating, CYPSE: 9.0
[4]; [21]
  herbicidal effect rating, CYPSE: 4.0
